In ChEMBL document CHEMBL1201862, “PubChem BioAssay data set” (2004):
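Protocol summary: plate cells (96-well), add compound at 5 concentrations, incubate 48 h, interpolate endpoints linearly. GI50 is the concentration that inhibits growth by half.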 Activity calls are given as the source filed them. No stated cut-off is given here; in the data, active = GI50 up to about 1.1 µM and inactive = higher.

What was measured:
Experiment in all cases: inhibition of tumour cell growth, NCI panel, 48 h
UACC-62 = test system: UACC-62
IGROV-1 = test system: IGROV-1
NCI-H23 = test system: NCI-H23
OVCAR-3 = test system: OVCAR-3
NCI/ADR-RES = test system: NCI/ADR-RES
A549 = test system: A549
Hs-578T = test system: Hs-578T
UO-31 = test system: UO-31
HT-29 = test system: HT-29
K562 = test system: K562
NCI-H460 = test system: NCI-H460
TK-10 = test system: TK-10
DU-145 = test system: DU-145
MCF7 = test system: MCF7
OVCAR-5 = test system: OVCAR-5
Malme-3M = test system: Malme-3M
HCC 2998 = test system: HCC 2998
SNB-75 = test system: SNB-75
CCRF-CEM = test system: CCRF-CEM

Row | Compound | GI50 (UACC-62) | GI50 (IGROV-1) | GI50 (NCI-H23) | GI50 (OVCAR-3) | GI50 (NCI/ADR-RES) | GI50 (A549) | GI50 (Hs-578T) | GI50 (UO-31) | GI50 (HT-29) | GI50 (K562) | GI50 (NCI-H460) | GI50 (TK-10) | GI50 (DU-145) | GI50 (MCF7) | GI50 (OVCAR-5) | GI50 (Malme-3M) | GI50 (HCC 2998) | GI50 (SNB-75) | GI50 (CCRF-CEM)
1 | COc1cc(Nc2n[nH]c(NS(=O)(=O)c3cc(C)c(Cl)cc3S)n2)cc(OC)c1OC | > 100 µM (inactive) | > 100 µM (inactive) | > 100 µM (inactive) | > 100 µM (inactive) | > 100 µM (inactive) | > 100 µM (inactive) | > 100 µM (inactive) | > 100 µM (inactive) | > 100 µM (inactive) | > 100 µM (inactive) | > 100 µM (inactive) | > 100 µM (inactive) | > 100 µM (inactive) | > 100 µM (inactive) | > 100 µM (inactive) | > 100 µM (inactive) | > 100 µM (inactive) | > 100 µM (inactive) | > 100 µM (inactive)
2 | [N-]=[N+]=NC(c1ccccc1)(c1ccccc1)c1ccccc1 | 15.4 µM (inactive) | 25 µM (inactive) | 16.5 µM (inactive) | 20.4 µM (inactive) | 16.7 µM (inactive) | 17 µM (inactive) | 22.8 µM (inactive) | 16 µM (inactive) | 16 µM (inactive) | 14.8 µM (inactive) | 16.6 µM (inactive) | 17.5 µM (inactive) | 17.3 µM (inactive) | 17.5 µM (inactive) | 16 µM (inactive) | 14.6 µM (inactive) | 15.8 µM (inactive) | 16.9 µM (inactive) | 19.1 µM (inactive)
3 | CCOC(=O)Cn1c(=O)c2nc(SC)sc2n(-c2ccccc2)c1=S | < 0.01 µM (active) | 3.05 µM (inactive) | 36.5 µM (inactive) | 26.6 µM (inactive) | 36.7 µM (inactive) | 82.2 µM (inactive) | 4.18 µM (inactive) | 4.43 µM (inactive) | > 100 µM (inactive) | > 100 µM (inactive) | 30.1 µM (inactive) | 30.3 µM (inactive) | > 100 µM (inactive) | > 100 µM (inactive) | 93.3 µM (inactive) | 18.8 µM (inactive) | 40 µM (inactive) | 4.1 µM (inactive) | > 100 µM (inactive)
4 | O=c1[nH]c(NCc2cccnc2)nc2[nH]cnc12 | > 100 µM (inactive) | > 100 µM (inactive) | > 100 µM (inactive) | > 100 µM (inactive) | > 100 µM (inactive) | > 100 µM (inactive) | > 100 µM (inactive) | > 100 µM (inactive) | > 100 µM (inactive) | > 100 µM (inactive) | > 100 µM (inactive) | > 100 µM (inactive) | > 100 µM (inactive) | > 100 µM (inactive) | > 100 µM (inactive) | > 100 µM (inactive) | > 100 µM (inactive) | > 100 µM (inactive) | > 100 µM (inactive)
5 | COC(=O)C(Cc1c[nH]c2ccccc12)NP(=O)(O)OCC1OC(n2cc(F)c(=O)[nH]c2=O)CC1O (configuration not stated) | > 26.5 µM (inactive) | > 71.1 µM (inactive) | > 56 µM (inactive) | > 100 µM (inactive) | 37.2 µM (inactive) | 10.4 µM (inactive) | > 100 µM (inactive) | 23.2 µM (inactive) | > 100 µM (inactive) | > 100 µM (inactive) | 1.14 µM (inactive) | > 100 µM (inactive) | 43.9 µM (inactive) | 7.35 µM (inactive) | > 100 µM (inactive) | > 100 µM (inactive) | 99.3 µM (inactive) | > 63.7 µM (inactive) | 3.59 µM (inactive)
6 | CCn1c(CCl)nc2c1C(=O)c1ccccc1C2=O | 1.28 µM (inactive) | 1.7 µM (inactive) | 1.4 µM (inactive) | 1.69 µM (inactive) | 2.48 µM (inactive) | 3.4 µM (inactive) | 2.29 µM (inactive) | – | 1.78 µM (inactive) | 2.36 µM (inactive) | 1.98 µM (inactive) | 2.51 µM (inactive) | 2.67 µM (inactive) | 1.87 µM (inactive) | 1.84 µM (inactive) | 1.04 µM (active) | 1.56 µM (inactive) | 1.58 µM (inactive) | 0.171 µM (active)
7 | CCCCCCCC1C(C)c2c([nH]c3ccccc23)C2C(=O)N(c3ccc(OC)cc3)C(=O)C21 (configuration not stated) | 4.24 µM (inactive) | > 5.89 µM (inactive) | 2.39 µM (inactive) | 2.48 µM (inactive) | 1.7 µM (inactive) | 2.33 µM (inactive) | 2 µM (inactive) | 2.51 µM (inactive) | 2.63 µM (inactive) | 3.11 µM (inactive) | 1.87 µM (inactive) | 2.38 µM (inactive) | > 8.3 µM (inactive) | 4.6 µM (inactive) | > 10 µM (inactive) | > 4.86 µM (inactive) | 7.6 µM (inactive) | 1.95 µM (inactive) | 2.61 µM (inactive)
